Laboratory results from patent US20240293304A1, “SULFONATE-FUNCTIONALIZED ALKYL POLYGLUCOSIDES AS SULFATE-FREE SURFACTANTS FOR TOOTHPASTE AND MOUTHWASH” (Colonial Chemical, Inc., priority 2021, published 2024).

Assays:
[1] = system: In vitro epidermal keratinocytes; assay type: cell-based
[2] = system: gingival tissues (MatTek EpiGingival); assay: MatTek EpiGingival in vitro gingival irritation potential; assay type: cell-based; conditions: 2% SLS
Description: Suga®Nate 160NC has been tested for its oral and gingival irritation potential in vitro (MatTek EpiOral™ & EpiGingival™). […] Taken together, the results reveal that Suga®Nate 160NC, even as a neat product, is less irritating to oral and gingival tissues than 2% SLS.

| ET-50 [1] [min] | Molecule | eye irritation classification [1] | ET-50 [2] [min] | gingival irritation [2] |
| --- | --- | --- | --- | --- |
| ≥ 256 | sodium hydroxypropylsulfonate laurylglucoside crosspolymer [Poly Suga®Nate 160P NC] | non-irritating |  |  |
|  | sorbitan oleate decylglucoside crosspolymer [Poly Suga®Mulse D9] | non-irritating |  |  |
|  | CCCCCCCCCCCCOS(=O)(=O)[O-].[Na+] [SLS] |  | 418.2 | resulted in gingival irritation |
